Source: ChEMBL document CHEMBL3797079, “Synergistic reduction of HIV-1 infectivity by 5-azacytidine and inhibitors of ribonucleotide reductase” (Bioorg Med Chem, 2016)
Activity calls are given as the source filed them. The rule behind the calls is not given here.

Key:
U373-MAGI [1] = assay: Reduction in dCTP level in human U373-MAGI cells at 50 nM preincubated for 2 hrs followed by 5-aza-dC addition measured after 4 hrs by LC-MS/MS analysis relative to 5-aza-dC; assay type: functional, cell-based
[2] = test system: Human immunodeficiency virus 1; assay: Potentiation of 5-Aza-C-induced antiviral activity against VSV-G pseudotyped HIV-1 NL4-3 infected in human U373-MAGI cells assessed as decrease in 5-Aza-C EC50 at 50 nM preincubated for 2 hrs followed by 5-Aza-C addition for 2 hrs and subsequent viral infection measured at 72 hrs post infection by flow cytometric analysis relative to control; assay type: functional
U373-MAGI [3] = assay: Effect on dRGU-TP level in human U373-MAGI cells at 50 nM preincubated for 2 hrs followed by 5-aza-dC addition measured after 4 hrs by LC-MS/MS analysis; assay type: functional, cell-based
U373-MAGI [4] = assay: Effect on 5-aza-dCTP level in human U373-MAGI cells at 50 nM preincubated for 2 hrs followed by 5-aza-dC addition measured after 4 hrs by LC-MS/MS analysis; assay type: functional, cell-based
U373-MAGI [5] = assay: Reduction in dCTP level in human U373-MAGI cells at 50 nM preincubated for 2 hrs followed by 5-aza-C addition measured after 4 hrs by LC-MS/MS analysis; assay type: functional, cell-based
[6] = test system: Human immunodeficiency virus 1; assay: Antiviral activity against VSV-G pseudotyped HIV-1 NL4-3 infected in human U373-MAGI cells assessed as reduction in viral infectivity at 50 nM incubated for 4 hrs prior to viral infection measured at 72 hrs post infection by flow cytometric analysis; assay type: functional, organism-based
U373-MAGI [7] = assay: Reduction in dCTP level in human U373-MAGI cells at 200 nM after 6 hrs by LC-MS/MS analysis; assay type: functional, cell-based
U373-MAGI [8] = assay: Reduction in dATP level in human U373-MAGI cells at 200 nM after 6 hrs by LC-MS/MS analysis; assay type: functional, cell-based
[9] = Cytotoxicity against human U373-MAGI cells at 50 nM measured at 72 hrs by Celltiter-Glo luminescent cell viability assay; assay type: cell-based; conditions: 0.05 µM
U373-MAGI [10] = assay: Increase in 5-aza-dCTP/dCTP ratio in human U373-MAGI cells at 200 nM preincubated for 2 hrs followed by 5-aza-C addition measured after 4 hrs by LC-MS/MS analysis relative to 5-aza-C; assay type: functional, cell-based
U373-MAGI [11] = assay: Reduction in dTTP level in human U373-MAGI cells at 200 nM after 6 hrs by LC-MS/MS analysis; assay type: functional, cell-based
U373-MAGI [12] = assay: Reduction in dRGU-TP level in human U373-MAGI cells at 200 nM preincubated for 2 hrs followed by 5-aza-C addition measured after 4 hrs by LC-MS/MS analysis; assay type: functional, cell-based
U373-MAGI [13] = assay: Increase in 5-aza-dCTP/dCTP ratio in human U373-MAGI cells at 50 nM preincubated for 2 hrs followed by 5-aza-C addition measured after 4 hrs by LC-MS/MS analysis relative to 5-aza-C; assay type: functional, cell-based
U373-MAGI [14] = assay: Reduction in 5-aza-dCTP level in human U373-MAGI cells at 50 nM preincubated for 2 hrs followed by 5-aza-C addition measured after 4 hrs by LC-MS/MS analysis; assay type: functional, cell-based
U373-MAGI [15] = assay: Reduction in dRGU-TP level in human U373-MAGI cells at 50 nM preincubated for 2 hrs followed by 5-aza-C addition measured after 4 hrs by LC-MS/MS analysis; assay type: functional, cell-based
U373-MAGI [16] = assay: Increase in 5-aza-dCTP/dCTP ratio in human U373-MAGI cells at 200 nM preincubated for 2 hrs followed by 5-aza-dC addition measured after 4 hrs by LC-MS/MS analysis relative to 5-aza-dC; assay type: functional, cell-based
U373-MAGI [17] = assay: Effect on dRGU-TP level in human U373-MAGI cells at 200 nM preincubated for 2 hrs followed by 5-aza-dC addition measured after 4 hrs by LC-MS/MS analysis; assay type: functional, cell-based
U373-MAGI [18] = assay: Effect on 5-aza-dCTP level in human U373-MAGI cells at 200 nM preincubated for 2 hrs followed by 5-aza-dC addition measured after 4 hrs by LC-MS/MS analysis; assay type: functional, cell-based
U373-MAGI [19] = assay: Reduction in dCTP level in human U373-MAGI cells at 200 nM preincubated for 2 hrs followed by 5-aza-dC addition measured after 4 hrs by LC-MS/MS analysis relative to 5-aza-dC; assay type: functional, cell-based
U373-MAGI [20] = assay: Reduction in 5-aza-dCTP level in human U373-MAGI cells at 200 nM preincubated for 2 hrs followed by 5-aza-C addition measured after 4 hrs by LC-MS/MS analysis; assay type: functional, cell-based
[21] = Reduction in dATP level in human U373-MAGI cells at 50 nM after 6 hrs by LC-MS/MS analysis; assay type: functional; design: scale not given: the % may be the effect or the level left
U373-MAGI [22] = assay: Reduction in dTTP level in human U373-MAGI cells at 50 nM after 6 hrs by LC-MS/MS analysis; assay type: functional, cell-based
U373-MAGI [23] = assay: Reduction in dCTP level in human U373-MAGI cells at 200 nM preincubated for 2 hrs followed by 5-aza-C addition measured after 4 hrs by LC-MS/MS analysis relative to 5-aza-C; assay type: functional, cell-based
U373-MAGI [24] = assay: Reduction in dGTP level in human U373-MAGI cells at 50 nM after 6 hrs by LC-MS/MS analysis; assay type: functional, cell-based
U373-MAGI [25] = assay: Reduction in dCTP level in human U373-MAGI cells at 50 nM after 6 hrs by LC-MS/MS analysis; assay type: functional, cell-based
U373-MAGI [26] = assay: Increase in 5-aza-dCTP/dCTP ratio in human U373-MAGI cells at 50 nM preincubated for 2 hrs followed by 5-aza-dC addition measured after 4 hrs by LC-MS/MS analysis relative to 5-aza-dC; assay type: functional, cell-based
U373-MAGI [27] = assay: Reduction in dGTP level in human U373-MAGI cells at 200 nM after 6 hrs by LC-MS/MS analysis; assay type: functional, cell-based

Nc1nc(Cl)nc2c1ncn2[C@@H]1O[C@H](CO)[C@@H](O)[C@@H]1F [CLOFARABINE]
Activity (U373-MAGI [1]): Active
fold change (FC) [2]: 2.5
Activity (U373-MAGI [3]): inactive
Activity (U373-MAGI [4]): inactive
Activity (U373-MAGI [5]): Active
Activity [6]: Active
Activity (U373-MAGI [7]): Active
Activity (U373-MAGI [8]): Active
Activity [9]: Non-toxic
Activity (U373-MAGI [10]): inactive
Activity (U373-MAGI [11]): inactive
Activity (U373-MAGI [12]): Active
Activity (U373-MAGI [13]): inactive
Activity (U373-MAGI [14]): inactive
Activity (U373-MAGI [15]): inactive
Activity (U373-MAGI [16]): Active
Activity (U373-MAGI [17]): inactive
Activity (U373-MAGI [18]): inactive
Activity (U373-MAGI [19]): Active
Activity (U373-MAGI [20]): Active
Activity [21]: 30%
Activity (U373-MAGI [22]): inactive
Activity (U373-MAGI [23]): Active
Activity (U373-MAGI [24]): inactive
Activity (U373-MAGI [25]): inactive
Activity (U373-MAGI [26]): Active
Activity (U373-MAGI [27]): Active
